Values joined by “and” are separate entries in the source; they are usually repeats but may differ in a detail not shown here. Identical values can stand only once. Like-named read-outs stand apart in the source and are kept apart here.
How the values were obtained:
in vitro = conditions: chlorocebus sabaeus
[1] = Human liver microsome stability assay; conditions: for HLM percentage remaining after 30 min: 3 μM, 37 °C; for half-life at 3 µM / remaining at 5 min, 3 µM / remaining at 10 min, 3 µM / remaining at 0.25 h, 3 µM: human, microsomes
Procedure: Metabolic Stability Assay
(§3) Liver Microsome Stability Assay Protocol
(§4) Human liver microsomes (HLMs, 20 mg/mL), CD-1 mouse liver microsomes (MLMs, 20 mg/mL), Sprague Dawley
(§5) rat liver microsomes (RLMs, 20 mg/mL) were purchased from Xenotech. NADPH was purchased from Sigma-
(§6) Aldrich and prepared in 10 mM stock solutions of distilled H2O (InvitrogenTM UltraPureTM). Verapamil and
(§7) diphenhydramine were both purchased from Sigma-Aldrich and served as positive controls for LM stability assays.
(§8) Test compounds and positive controls were initially dissolved in DMSO to make 10 mM stock solutions. Sample
(§9) solutions were then further diluted in 100% MeCN to 500 μM. Next, the reactions were prepared by mixing human
(§10) or mouse liver microsomes (55 μL) with potassium phosphate buffer (100 mM, 928 μL) in 1.5 mL Eppendorf tubes.
(§11) The test compounds (6.6 μL of 500 μM solution) were subsequently added to the suspensions, and the reaction
(§12) mixtures were incubated at 37 °C for 5 min. Afterward, the liver microsome reactions were initiated with 110 μL
(§13) of 10 mM NADPH and further incubated at 37 °C for the designated time course of the study. This procedure
(§14) provided experiments with a final volume of 1100 μL (0.6% organic solvent content) and a final test compound
(§15) concentration of 3 μM. Aliquots (100 μL) were removed from each reaction mixture in duplicate at 0, 5, 10, 15,
(§16) and 30 min time intervals and quenched with 100 μL of cold internal standard solution (ISTD, 2 μM
(§17) 7-ethoxy-d 5-coumarin in MeOH or MeCN). Quenched aliquots were then centrifuged at 12,500 g for 5-10 min, and
(§18) the resulting supernatants were withdrawn and placed in LC-MS vials to be analyzed by LC-MS/MS (Agilent
(§19) G6460C QQQ MS coupled with an Infinity II 1260 HPLC). Each test compound was run in tandem with positive and
(§20) negative control experiments for quality assurance. Positive control reactions were conducted at a final volume
(§21) of 550 μL for a single run of each time point. Lastly, the negative control experiment was conducted with test
(§22) compounds and liver microsomes in the absence of NADPH (150 μL) and analyzed at the 30 min time point.
(§23) Data Analysis. Each data point was analyzed in triplicate using in-between blank washes to avoid carry over and
(§24) to equilibrate the column for the subsequent runs. Averages of these triplicates for individual compounds at each
(§25) time point were then normalized to the data at 0 min, representing 100% test compound remaining or 0%
(§26) metabolism. Half-lives (t 1/2) were calculated by plotting ln of % test compound remaining versus time and
(§27) performing linear regression to determine slope.
(§28) Instrumentation and LC-MS/MS Method Development
(§29) LC-MS/MS analyses were conducted on an Agilent 1260 Infinity II HPLC equipped with an Agilent G6460 triple
(§30) quadrupole mass spectrometer (Agilent Technologies, USA). Reverse-phase HPLC separation for each compound
(§31) m) column maintained at 40 °C. The mobile phase used during analyses consisted of either MeOH-H2O (0.1% FA)
(§32) or MeCN-H2O (0.1% FA) at a flow rate of 0.5 mL/min. Each method was developed in the presence of the internal
(§33) standard (ISTD), 7-ethoxy-d 5-coumarin. Precursor and product ion detection was performed with Agilent Jet
(§34) Stream electrospray positive ionization (ESI+) in multiple reaction monitoring (MRM) mode. All MRM transitions,
(§35) MS conditions were as follows: dwell time of 100 ms; gas flow of 10 L/min; nebulizer pressure of 45 psi; delta EMV
(§36) of 200 V. Lastly, all acquired data was processed using Agilent 6460 Quantitative Analysis software.

[2] = Rat liver microsome stability assay; conditions: 37 °C; for remaining at 5 min, 3 µM / remaining at 10 min, 3 µM / remaining at 0.25 h, 3 µM / half-life at 3 µM: Sprague-Dawley, rat, microsomes; for remaining at 5 min, 3 µM / remaining at 10 min, 3 µM / remaining at 0.25 h, 3 µM: RLM Rel % remaining; for half-life at 3 µM: RLM t1/2, 3 μM, unit inferred
Procedure: Metabolic Stability Assay
as §3, §4, §5, §6, §7, §8, §9, §10, §11, §12, §13, §14, §15, §16, §17, §18, §19, §20, §21, §22, §23, §24, §25, §26, §27, §28, §29, §30, §31, §32, §33, §34, §35, §36

[3] = test system: SARS-CoV-2-Nluc reporter virus; assay: microbe, parasite or virus in culture; format: cell-based; conditions: for EC50: Severe acute respiratory syndrome coronavirus 2, VeroE6/TMPRSS2 cells, parentheses denote 95% confidence intervals
SARS-CoV-2 Mpro (3CLpro) = SARS-CoV-2 Mpro (3CLpro) (Severe acute respiratory syndrome coronavirus 2, UniProt P0DTD1); assay: SARS-CoV-2 recombinant protease enzymatic assay (FRET); format: biochemical; conditions: for IC50: recombinant Mpro, FRET peptide substrate
[4] = Mouse liver microsome stability assay; conditions: for MLM percentage remaining after 30 min: 3 μM, 37 °C; for half-life at 3 µM / remaining at 5 min, 3 µM / remaining at 10 min, 3 µM / remaining at 0.25 h, 3 µM: CD-1, mouse, microsomes
Procedure: Metabolic Stability Assay
as §3, §4, §5, §6, §7, §8, §9, §10, §11, §12, §13, §14, §15, §16, §17, §18, §19, §20, §21, §22, §23, §24, §25, §26, §27, §28, §29, §30, §31, §32, §33, §34, §35, §36

[5] = Liver microsome metabolite identification (LC-HRMS); format: in vitro ADME; conditions: liver microsomes, LC-HRMS
Procedure: Figure S15: Stability of 45 in rat liver microsomes (RLM) at 37 °C
Table S17: Stability of 43 in rat liver microsomes (RLM) at 37 °C
Time Response ratio Average RR Rel % ln
Metabolite identification
Procedure for Liver Microsome Metabolite Identification Assay: Test compounds and positive controls were dissolved in 100% DMSO to make 10 mM stock solutions. The 10 mM stock solutions of test and control […]
(1 picture or pasted object on this page, not shown here) […]
compounds were further diluted in potassium phosphate buffer (100 mM, pH 7.4) to 500 μM to ensure that the organic solvent content was < 0.2%. The liver microsome (HLM or MLM) assay was prepared in a 1.5 mL Eppendorf tube with a final volume of […] for duplicate runs. Each reaction contained phosphate buffer (374 μL), liver microsomes (550 μL), and test compound (66 μL of 500 resulting in a final concentration of 30 μM), μM for the […]
test compound. […] Aliquots (100 μL) were removed in […]
(§1) MS analysis was performed using full scan from a mass range of 100-700 m/z at 60k resolution with data dependent MS/MS and MSn programs enabled for the top 5 ions detected for each scan. Compounds are detected based on their MS1 precursor ion accurate mass m/z and identified with matching theoretical and observed accurate mass MS1 ions with interpretation of accurate mass MS/MS spectra from expected […]

[6] = Pharmacokinetics after single IV and PO administration; format: in vivo, Male Sprague Dawley rats; conditions: male, Sprague-Dawley, rat, plasma
Procedure: (§2) To this end, 36 was studied in male Sprague–Dawley rats following a single intravenous dose at 0.25 mg/kg and an oral dose at 0.5 mg/kg (SI, Table S18).
Figure S16: Metabolite identification study of Compound 43 in liver microsomes using liquid chromatography coupled to high resolution mass spectrometry (LC-HRMS). The identification of metabolite Compound 43 M1 […]
as §1
Table S18: Pharmacokinetic data of Compound 36 in Male Sprague Dawley rats following a single intravenous and oral administration (Dose: 0.25 mg/kg, IV and 0.5 mg/kg, PO)
Dose Tmax aC0/Cmax T1/2 CL Vss
Matrix Route AUClast AUCinf (mL/min %F […]
a – Back extrapolated concentration in IV group.
Figure S17: Plasma concentrations-time profiles (mean ± SD) of Compound 36 in Male Sprague Dawley rats following a single intravenous and oral administration (Dose: 0.25 mg/kg, IV and 0.5 mg/kg, PO) […]
(1 picture or pasted object on this page, not shown here)

[7] = Oral dose escalation pharmacokinetics (10 and 100 mg/kg PO); format: in vivo, rat; conditions: for AUC(0-inf) / Cmax / Tlast / Tmax / half-life / concentration at 24 h: rat plasma, mean ± SD, n = 3; for concentration at 24 h: read-out: Clast
Procedure: as §2
Table S19. Summary of Pharmacokinetic Parameters (nmol/mL) for Compound 36 in Rat Plasma after a Single Oral
Dose of 36 at 10 mg/kg or 100 mg/kg
Dose Tmax Cmax Tlast Clast AUCinf t1/2
(mg/kg) (h) (nmol/mL) (h) (nmol/mL) (h*nmol/mL) (h)
Results are shown as averages and standard deviations (n = 3).
Figure S18. Average Concentrations (nmol/mL) of Compound 36 in Rat Plasma after a Single Oral Dose of 36 at 10
Left panel: Linear Scale, Right panel: Log Scale. Results are shown as averages and standard deviations (n = 3). […]

O=c1[nH]cccc1-c1cn(-c2cc(Cl)cc(OCc3nccn3C(F)F)c2)c(=O)n(-c2cccnc2)c1=O [Compound 41]
CC50 (in vitro): > 100000 nM | HLM percentage remaining after 30 min [1]: 70.7% | half-life at 3 µM [1]: > 30 min | remaining at 5 min, 3 µM [1]: 94.5% | remaining at 10 min, 3 µM [1]: 84.4% | remaining at 0.25 h, 3 µM [1]: 66.4% | RLM percentage remaining after 30 min ([2]; 3 μM): 90.2% and 90.17% | remaining at 5 min, 3 µM ([2]; 5 min): 97.6% | remaining at 10 min, 3 µM ([2]; 10 min): 95.2% | remaining at 0.25 h, 3 µM ([2]; 15 min): 93.9% | half-life at 3 µM [2]: > 30 min | EC50 [3]: 6760 nM | IC50 (SARS-CoV-2 Mpro (3CLpro)): 13 nM | MLM percentage remaining after 30 min [4]: 22.8% and 22.79% | half-life at 3 µM [4]: 14.7 min | remaining at 5 min, 3 µM [4]: 63.8% | remaining at 10 min, 3 µM [4]: 50.2% | remaining at 0.25 h, 3 µM [4]: 37.7%

O=c1[nH]cccc1-c1cn(-c2cc(Cl)cc(OCc3ccccc3Cl)c2)c(=O)n(-c2cccnc2)c1=O [Compound 43]
CC50 (in vitro): > 100000 nM | HLM percentage remaining after 30 min [1]: 48% and 47.72% | half-life at 3 µM [1]: 27.8 min | remaining at 5 min, 3 µM [1]: 91.6% | remaining at 10 min, 3 µM [1]: 76.9% | remaining at 0.25 h, 3 µM [1]: 70.7% | major microsomal metabolite / metabolic route [5]: ether cleavage | RLM percentage remaining after 30 min ([2]; 3 μM): 26.6% and 26.55% and 30.88% | RLM t1/2 ([2]; 3 μM, unit not given): 19.8 min | RLM Rel % remaining ([2]; 5 min): 80.16% | RLM Rel % remaining ([2]; 10 min): 63.43% | RLM Rel % remaining ([2]; 15 min): 57.78% | remaining at 5 min, 3 µM ([2]; 5 min): 71.1% | remaining at 10 min, 3 µM ([2]; 10 min): 55.3% | remaining at 0.25 h, 3 µM ([2]; 15 min): 43.5% | half-life at 3 µM [2]: 16.1 min | EC50 range in words [3]: sub-micromolar | EC50 [3]: 130 nM | IC50 range in words (SARS-CoV-2 Mpro (3CLpro)): single-digit nanomolar range | IC50 (SARS-CoV-2 Mpro (3CLpro)): 8.6 nM | MLM percentage remaining after 30 min [4]: 4.0% and 3.96% | half-life at 3 µM [4]: 3 min | remaining at 5 min, 3 µM [4]: 22.8% | remaining at 10 min, 3 µM [4]: 10.4% | remaining at 0.25 h, 3 µM [4]: 7.53%

O=c1[nH]cccc1-c1cn(-c2cc(Cl)cc(OCc3scnc3C(F)(F)F)c2)c(=O)n(-c2cccnc2)c1=O [Compound 37]
CC50 (in vitro): > 100000 nM | EC50 [3]: 2400 nM | IC50 (SARS-CoV-2 Mpro (3CLpro)): 43 nM

O=c1[nH]cccc1-c1cn(-c2cc(Cl)cc(OCc3nc4ccccc4n3C(F)F)c2)c(=O)n(-c2cccnc2)c1=O [Compound 38]
CC50 (in vitro): > 100000 nM | EC50 [3]: 1890 nM | IC50 (SARS-CoV-2 Mpro (3CLpro)): 21 nM

O=c1[nH]cccc1-c1cn(-c2cc(Cl)cc(OCCC(F)(F)F)c2)c(=O)n(-c2cccnc2)c1=O [Compound 36]
CC50 (in vitro): > 100000 nM | bioavailability ([6]; PO 0.5 mg/kg vs IV 0.25 mg/kg, read-out: %F (oral bioavailability)): 40.6% and 41% | AUC(0-inf) ([6]; IV 0.25 mg/kg): 1680 ng·h/mL | AUC(0-t) ([6]; IV 0.25 mg/kg): 1610 ng·h/mL | clearance ([6]; IV 0.25 mg/kg): 2.49 mL/min/kg | half-life ([6]; IV 0.25 mg/kg): 103 min | C0 ([6]; IV 0.25 mg/kg, read-out: C0 (back extrapolated concentration)): 1330 ng/mL | Vd ([6]; IV 0.25 mg/kg, read-out: Vss): 0.33 L/kg | AUC(0-inf) ([6]; PO 0.5 mg/kg): 1690 ng·h/mL | AUC(0-t) ([6]; PO 0.5 mg/kg): 1310 ng·h/mL | Cmax ([6]; PO 0.5 mg/kg): 285 ng/mL | Tmax ([6]; PO 0.5 mg/kg): 100 min | HLM percentage remaining after 30 min [1]: 91.7% and 91.71% | half-life at 3 µM [1]: > 30 min | remaining at 5 min, 3 µM [1]: 98.2% | remaining at 10 min, 3 µM [1]: 97.7% | remaining at 0.25 h, 3 µM [1]: 98.2% | increase in AUC on 10-fold increase in dose ([7]; 10 mg/kg vs 100 mg/kg PO): 2 fold | AUC(0-inf) ([7]; PO 10 mg/kg): 23.2 ± 2.18 µM·h | Cmax ([7]; PO 10 mg/kg): 2610 ± 476 nM | Tlast ([7]; PO 10 mg/kg): 24.0 ± 0.00 h | Tmax ([7]; PO 10 mg/kg): 100 ± 34.6 min | half-life ([7]; PO 10 mg/kg): 161 ± 18.6 min | concentration at 24 h ([7]; PO 10 mg/kg): 12.6 ± 6.27 nM | AUC(0-inf) ([7]; PO 100 mg/kg): 49.9 ± 4.53 µM·h | Cmax ([7]; PO 100 mg/kg): 4130 ± 161 nM | Tlast ([7]; PO 100 mg/kg): 24.0 ± 0.00 h | Tmax ([7]; PO 100 mg/kg): 140 ± 91.8 min | half-life ([7]; PO 100 mg/kg): 224 ± 64.8 min | concentration at 24 h ([7]; PO 100 mg/kg): 114 ± 105 nM | RLM percentage remaining after 30 min ([2]; 3 μM): 86.4% and 86.41% | remaining at 5 min, 3 µM ([2]; 5 min): 95.4% | remaining at 10 min, 3 µM ([2]; 10 min): 90.9% | remaining at 0.25 h, 3 µM ([2]; 15 min): 88.8% | half-life at 3 µM [2]: > 30 min | EC50 [3]: 1350 nM | IC50 (SARS-CoV-2 Mpro (3CLpro)): 55 nM | MLM percentage remaining after 30 min [4]: 73.3% and 73.26% | half-life at 3 µM [4]: > 30 min | remaining at 5 min, 3 µM [4]: 93.9% | remaining at 10 min, 3 µM [4]: 90.1% | remaining at 0.25 h, 3 µM [4]: 83.8%

O=c1ccc(-c2cn(-c3cc(Cl)cc(Cl)c3)c(=O)n(-c3cccnc3)c2=O)c[nH]1 [Compound 7]
CC50 (in vitro): > 100000 nM | EC50 [3]: > 20000 nM | IC50 (SARS-CoV-2 Mpro (3CLpro)): 1580 nM and 1590 nM

Cn1cc(COc2cc(Cl)cc(-n3cc(-c4ccc[nH]c4=O)c(=O)n(-c4cccnc4)c3=O)c2)c(C(F)(F)F)n1 [Compound 44]
CC50 (in vitro): > 100000 nM | EC50 [3]: 3300 nM | IC50 range in words (SARS-CoV-2 Mpro (3CLpro)): single-digit nanomolar range | IC50 (SARS-CoV-2 Mpro (3CLpro)): 5.6 nM

Cc1nc(C)c(COc2cc(Cl)cc(-n3cc(-c4ccc[nH]c4=O)c(=O)n(-c4cccnc4)c3=O)c2)s1 [Compound 40]
CC50 (in vitro): > 100000 nM | EC50 [3]: 10200 nM | IC50 (SARS-CoV-2 Mpro (3CLpro)): 16 nM

Source: paper PMC10577883, “Design and Optimization of Novel Competitive, Non-peptidic, SARS-CoV-2 M^pro Inhibitors” (ACS Medicinal Chemistry Letters, 2023)
